These results are taken from US20230011869A1 (Hoffmann-La Roche Inc., priority 2018, published 2023).

The structures appear in SMILES notation. Where a name gives a salt, the structure may show the parent alone.

The first assay relates to Acinetobacter baumannii ATCC17961. The assay can be described thus: Antimicrobial susceptibility testing: 90% growth inhibitory concentration (IC90) determination, Iso-Sensitest broth. The class given is cell-based. The note with it: Acinetobacter baumannii, ATCC17961, 16 h, 90% growth inhibitory concentration, Acinetobacter baumannii ATCC17961, Iso-Sensitest broth, OD 600 nm over 16 h; read-out: ATCC17961 IC90. In short, it runs like this: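 Growth followed by optical density at 600 nm every 20 minutes for 16 h at 35±2° C, with inhibition assessed in log phase to give IC90. Compounds tested as twofold dilution series (e.g. 50 to 0.097 μM final) against 5×10^(5) CFU/ml in Iso-Sensitest medium.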
The IC90 is the point of the concentration-response curve where the effect stands at 90%. As to `CC[C@]1(O)CN[C@H](C(=O)N2CCN(C(=O)c3ccc(Nc4nccn5c(-c6ccc(OC)c(F)c6)cnc45)cc3C)CC2)C1` [Example 464, [4-[(2S,4R)-4-ethyl-4-hydroxypyrrolidine-2-carbonyl]piperazin-1-yl]-[4-[[3-(3-fluoro-4-methoxyphenyl)imidazo[1,2-a]pyrazin-8-yl]amino]-2-methylphenyl]methanone; for-mic acid], the IC90 is 137 nM.
On to `CCc1cc(Nc2nccn3c(-c4ccc(OC)c(F)c4F)cnc23)ccc1C(=O)N1CCNCC1` [Example 466], for which the 90% effect concentration (IC90) stood at 175 nM.
For `COc1ccc(-c2cnc3c(Nc4ccc(C(=O)N5CCN(C(=O)[C@H](CCCN)NC(=O)[C@@H](N)CCC(=O)O)CC5)c(C)c4)nccn23)c(F)c1F` [Example 535, (4S)-4-amino-5-[[2S)-5-amino-1-[4-[4-[[3-(2,3-difluoro-4-methoxyphenyl)imidazo[1,2-a]pyrazin-8-yl]amino]-2-methylbenzoyl]piperazin-1-yl]-1-oxopentan-2-yl]amino]-5-oxopentanoic acid; hydrochloride], the 90% effect concentration (IC90) came to 1920 nM.
The same measure, in the same setting: for `Cc1cc(Nc2nccn3c(-c4ccc(OCC#N)c(F)c4Cl)cnc23)ccc1C(=O)N1CCC(C(=O)N2CCN[C@H](CO)C2)CC1` [Example 538, 2-[3-chloro-2-fluoro-4-[8-[4-[4-[(3S)-3-(hydroxymethyl)piperazine-1-carbonyl]piperidine-1-carbonyl]-3-methylanilino]imidazo[1,2-a]pyrazin-3-yl]phenoxy]acetonitrile; for-mic acid] the value was 88 nM; for `Cc1cc(Nc2nccn3c(-c4ccc(OCC#N)c(F)c4F)cnc23)ccc1C(=O)N1CCN(C(=O)CN(C)C)CC1` [Example 545, 2-[4-[8-[4-[4-[2-(dimethylamino)acetyl]piper-azine-1-carbonyl]-3-methylanilino]imidazo[1,2-a]pyrazin-3-yl]-2,3-difluorophenoxy]acetonitrile; formic acid], 38 nM.
On to `COc1ccc(-c2cnc3c(Nc4ccc(C(=O)N5CCN(C(=O)[C@H](CCCNC(=N)N)NC(=O)[C@@H](N)CCC(=O)O)CC5)c(C)c4)nccn23)c(F)c1F` [Example 555, (S)-4-amino-5-(((S)-1-(4-(4-((3-(2,3-difluoro-4-methoxyphenyl)imidazo[1,2-a]pyrazin-8-yl)amino)-2-methylbenzoyl)piperazin-1-yl)-5-guanidino-1-oxopentan-2-yl)amino)-5-oxopentanoic acid trihydrochloride], for which the IC90 was 704 nM.
The same measure, in the same setting: for `Cc1cc(Nc2nccn3c(-c4ccc(OC(F)F)cc4)cnc23)ccc1C(=O)N1CCN(C(=O)OC(C)(C)C)CC1` [Example 556, tert-butyl 4-(4-((3-(4-(difluoromethoxy)phenyl)imidazo [1,2-a]pyrazin-8-yl)amino)-2-methylbenzoyl)piperazine-1-carboxylate] the value was 418 nM; for `COc1ccc(-c2cnc3c(Nc4ccc(C(=O)N5CCC(C(=O)N6C[C@@H](O)[C@@H](O)[C@@H](O)C6)CC5)c(C)c4)nccn23)c(F)c1F` [Example 569, (1-(4-((3-(2,3-difluoro-4-methoxyphenyl)imidazo[1,2-a]pyrazin-8-yl)amino)-2-methylbenzoyl)piperidin-4-yl)((3R,4s,5S)-3,4,5-trihydroxypiperidin-1-yl)methanone], 205 nM.
Same read-out and setting: for `COc1ccc(-c2cnc3c(Nc4ccc(C(=O)N5CCC(C(=O)NCC(O)Cn6cccn6)CC5)c(C)c4)nccn23)c(F)c1F` (stereo not shown) [Example 570, 1-(4-((3-(2,3-difluoro-4-methoxyphenyl)imidazo[1,2-a]pyrazin-8-yl)amino)-2-methylbenzoyl)-N-(2-hydroxy-3-(1H-pyrazol-1-yl)propyl)piperidine-4-carboxamide] the value was 245 nM; for `COc1ccc(-c2cnc3c(Nc4ccc(C(=O)N5CCC(C(=O)NCC(O)CN6CCOC(C)C6)CC5)c(C)c4)nccn23)c(F)c1F` (stereo not shown) [Example 571, 1-(4-((3-(2,3-difluoro-4-methoxyphenyl)imidazo[1,2-a]pyrazin-8-yl)amino)-2-methylbenzoyl)-N-(2-hydroxy-3-(2-methylmorpholino)propyl) piperidine-4-carboxamide], 265 nM.
Still for that read-out and setting: next, `COc1ccc(-c2cnc3c(Nc4ccc(C(=O)N5CCC(C(=O)NCC(O)CN6CCOCC6)CC5)c(C)c4)nccn23)c(F)c1F` (stereo not shown) [Example 572, 1-(4-((3-(2,3-difluoro-4-methoxyphenyl)imidazo[1,2-a]pyrazin-8-yl)amino)-2-methylbenzoyl)-N-(2-hydroxy-3-morpholinopropyl)piperidine-4-carboxamide]: 216 nM; `COc1ccc(-c2cnc3c(Nc4ccc(C(=O)N5CCN(C(=O)[C@@H]6CC(F)(F)CN6)CC5)c(C)c4)nccn23)c(F)c1F` [Example 573, (S)-(4-(4-((3-(2,3-difluoro-4-methoxyphenyl)imidazo[1,2-a]pyrazin-8-yl)amino)-2-methylbenzoyl)piperazin-1-yl)(4,4-difluoropyrrolidin-2-yl)methanone hydrochloride]: 310 nM.
For the molecule `COc1ccc(-c2cnc3c(Nc4ccc(C(=O)N5CCN(C(=O)[C@@H]6C[C@@H](C#N)CN6)CC5)c(C)c4)nccn23)c(F)c1F` [Example 574, (3R,5S)-5-[4-[4-[[3-(2,3-difluoro-4-methoxyphenyl)imidazo[1,2-a]pyrazin-8-yl]amino]-2-methylbenzoyl]piperazine-1-carbonyl]pyrrolidine-3-carbonitrile;hydrochloride], the IC90 was determined as 265 nM.
On to `COc1ccc(-c2cnc3c(Nc4cc(C)c(C(=O)N5CCN(C(=O)[C@@H]6C[C@@H](O)CN6)CC5)c(Cl)c4)nccn23)c(F)c1F` [Example 575, (4-(2-chloro-4-((3-(2,3-difluoro-4-methoxyphenyl)imidazo[1,2-a]pyrazin-8-yl)amino)-6-methylbenzoyl)piperazin-1-yl)((2S,4R)-4-hydroxypyrrolidin-2-yl)methanone dihydrochloride], for which the IC90 is 583 nM.
On the same count and under the same terms, next, `COc1ccc(-c2cnc3c(Nc4ccc(C(=O)N5CCN(C(=O)[C@@H]6C[C@@H](O)CN6)CC5)c(C)c4F)nccn23)c(F)c1F` [Example 576, (4-(4-((3-(2,3-difluoro-4-methoxyphenyl)imidazo[1,2-a]pyrazin-8-yl)amino)-3-fluoro-2-methylbenzoyl)piperazin-1-yl)((2S,4R)-4-hydroxypyrrolidin-2-yl)methanone dihydrochloride]: 236 nM; `COc1ccc(-c2cnc3c(Nc4ccc(C(=O)N5CCN(S(=O)(=O)[C@@H]6CCNC6)CC5)c(C)c4)nccn23)c(F)c1F` [Example 579, (R)-(4-((3-(2,3-difluoro-4-methoxyphenyl)imidazo[1,2-a]pyrazin-8-yl)amino)-2-methylphenyl)(4-(pyrrolidin-3-ylsulfonyl)piperazin-1-yl)methanone]: 258 nM.
With `CCc1cc(Nc2nccn3c(-c4ccc(OC)c(F)c4F)cnc23)ccc1C(=O)N1CCN(CCO[C@@H]2O[C@H](CO)[C@H](O)[C@H](O)[C@H]2O)CC1` [Example 580, (4-((3-(2,3-difluoro-4-methoxyphenyl)imidazo[1,2-a]pyrazin-8-yl)amino)-2-ethylphenyl)(4-(2-(((2R,3R,4S,5R,6R)-3,4,5-trihydroxy-6-(hydroxymethyl)tetrahydro-2H-pyran-2-yl)oxy)ethyl)piperazin-1-yl)methanone], the 90% effect concentration (IC90) amounted to 601 nM.
For `COc1ccc(-c2cnc3c(Nc4ccc(C(=O)N5C[C@H]6CNC[C@@H](C5)O6)c(C)c4)nccn23)c(F)c1F` [Example 581, ((1R,5S)-9-oxa-3,7-diazabicyclo[3.3.1]nonan-3 - yl)(4-((3-(2,3-difluoro-4-methoxyphenyl)imidazo[1,2-a]pyrazin-8-yl)amino)-2-methylphenyl)methanone dihydrochloride], the IC90 is 464 nM.
The same measure, in the same setting: for `COc1ccc(-c2cnc3c(Nc4ccc(C(=O)N5CCN(C(=O)[C@@H]6C[C@@](O)(C(F)(F)F)CN6)CC5)c(C)c4)nccn23)c(F)c1F` [Example 582, (4-(4-((3-(2,3-difluoro-4-methoxyphenyl)imidazo[1,2-a]pyrazin-8-yl)amino)-2-methylbenzoyl)piperazin-1-yl)((2S,4S)-4-hydroxy-4-(trifluoromethyl)pyrrolidin-2-yl)methanone hydrochloride] the value was 273 nM.

The assay is the same for the next values; noted with them: Acinetobacter baumannii, ATCC17961, 16 h, read-out: ATCC17961 IC90.
For the molecule `COc1ccc(-c2cnc3c(Nc4ccc(C(=O)N5CCN(C(=O)[C@@H]6C[C@](C)(O)CN6)CC5)c(C)c4)nccn23)cc1F` [Example 461, [4-[[3-(3-fluoro-4-methoxyphenyl)imidazo[1,2-a]pyrazin-8-yl]amino]-2-methylphenyl]-[4-[(2S,4S)-4-hydroxy-4-methylpyrrolidine-2-carbonyl]piperazin-1-yl]methanone; formic acid], the 90% effect concentration (IC90) was 148 nM.
Still for that read-out and setting: next, `COc1ccc(-c2cnc3c(Nc4ccc(C(=O)N5CCN(C(=O)[C@@H]6C[C@@](C)(O)CN6)CC5)c(C)c4)nccn23)cc1F` [Example 463, [4-[[3-(3-fluoro-4-methoxyphenyl)imidazo[1,2-a]pyrazin-8-yl]amino]-2-methylphenyl]-[4-[(2S,4R)-4-hydroxy-4-methylpyrrolidine-2-carbonyl]piperazin-1-yl]methanone; formic acid]: 132 nM; `COc1ccc(-c2cnc3c(Nc4ccc(C(=O)N5CCN(C(=O)CC[C@H](NC(=O)[C@@H](N)CCCCN)C(=O)O)CC5)c(C)c4)nccn23)c(F)c1F` [Example 531, (2S)-2-[[(2S)-2,6-diaminohexanoyl]amino]-5-[4-[4-[[3-(2,3-difluoro-4-methoxyphenyl)imidazo[1,2-a]pyrazin-8-yl]amino]-2-methylbenzoyl]piperazin-1-yl]-5-oxopentanoic acid; hydrochloride]: 686 nM.
